Paper PMC7468568 (Nature chemical biology, 2020)

Tests used:
brain NAE levels = assay: Lipid measurements in mouse brain; assay type: in vivo
[1] = Microsomal clearance, human; assay type: in vitro ADME; details: 1 μM
PLA2G4E = molecular target: T1, PLA2G4E (Homo sapiens, UniProt Q3MJ16); assay: Gel-based ABPP, hPLA2G4E overexpressing membrane lysate; assay type: biochemical; details: at 10 μM
T1 sequence (Q3MJ16 1-868): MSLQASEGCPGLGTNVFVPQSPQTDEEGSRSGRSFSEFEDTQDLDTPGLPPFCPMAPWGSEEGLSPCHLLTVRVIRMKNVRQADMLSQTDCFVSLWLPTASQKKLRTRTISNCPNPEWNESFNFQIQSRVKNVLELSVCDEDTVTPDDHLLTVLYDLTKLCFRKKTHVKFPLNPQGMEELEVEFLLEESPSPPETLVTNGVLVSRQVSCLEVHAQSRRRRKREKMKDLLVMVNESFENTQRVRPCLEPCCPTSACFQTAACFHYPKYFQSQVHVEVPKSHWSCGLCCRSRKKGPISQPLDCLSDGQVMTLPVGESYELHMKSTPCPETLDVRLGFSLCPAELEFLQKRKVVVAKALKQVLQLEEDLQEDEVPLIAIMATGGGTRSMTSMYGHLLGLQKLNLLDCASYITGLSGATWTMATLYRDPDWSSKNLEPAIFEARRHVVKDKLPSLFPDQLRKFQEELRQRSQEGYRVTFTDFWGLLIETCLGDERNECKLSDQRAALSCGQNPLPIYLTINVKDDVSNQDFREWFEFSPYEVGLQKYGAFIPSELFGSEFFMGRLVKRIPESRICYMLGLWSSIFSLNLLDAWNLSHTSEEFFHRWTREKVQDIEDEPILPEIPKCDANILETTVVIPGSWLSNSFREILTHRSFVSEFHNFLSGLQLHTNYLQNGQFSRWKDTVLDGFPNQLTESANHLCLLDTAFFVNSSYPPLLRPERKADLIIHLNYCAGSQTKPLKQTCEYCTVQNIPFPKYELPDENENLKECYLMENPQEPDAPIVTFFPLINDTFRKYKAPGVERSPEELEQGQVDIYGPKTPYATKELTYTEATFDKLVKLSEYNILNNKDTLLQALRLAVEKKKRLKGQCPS

ABHD6 = molecular target: T2, ABHD6 (Mus musculus, UniProt Q8R2Y0); assay: Gel-based ABPP, mouse brain membrane proteome; assay type: biochemical
T2 sequence (Q8R2Y0 1-336): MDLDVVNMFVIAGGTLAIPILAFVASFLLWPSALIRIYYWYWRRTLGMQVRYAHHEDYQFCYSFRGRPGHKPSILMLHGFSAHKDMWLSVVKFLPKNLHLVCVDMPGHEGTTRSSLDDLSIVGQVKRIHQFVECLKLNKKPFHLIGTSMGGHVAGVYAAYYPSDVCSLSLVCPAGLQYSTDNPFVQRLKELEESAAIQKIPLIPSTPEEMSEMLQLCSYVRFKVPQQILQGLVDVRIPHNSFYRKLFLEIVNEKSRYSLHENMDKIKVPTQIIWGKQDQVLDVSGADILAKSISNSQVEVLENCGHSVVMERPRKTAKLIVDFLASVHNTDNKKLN

[2] = test system: c-Fos protein expression in the paraventricular nucleus (PVN); assay: HPA axis activation: c-Fos labeling in the PVN; assay type: in vivo, mouse; details: C57BL/6J mice; 30 mg kg^−1 i.p. single dose; 210 min before perfusion; P< 0.0001
[3] = molecular target: protein targets of photoprobe 10 in hNAPE-PLD-FLAG-transfected HEK293T cells (Homo sapiens, UniProt Q6IQ20); assay: Chemical proteomics-based photoaffinity labeling; assay type: cell-based; details: photoprobe 10 2 μM versus LEI-401 20 μM
Chain of protein targets of photoprobe 10 in hNAPE-PLD-FLAG-transfected HEK293T cells (Q6IQ20 whole entry): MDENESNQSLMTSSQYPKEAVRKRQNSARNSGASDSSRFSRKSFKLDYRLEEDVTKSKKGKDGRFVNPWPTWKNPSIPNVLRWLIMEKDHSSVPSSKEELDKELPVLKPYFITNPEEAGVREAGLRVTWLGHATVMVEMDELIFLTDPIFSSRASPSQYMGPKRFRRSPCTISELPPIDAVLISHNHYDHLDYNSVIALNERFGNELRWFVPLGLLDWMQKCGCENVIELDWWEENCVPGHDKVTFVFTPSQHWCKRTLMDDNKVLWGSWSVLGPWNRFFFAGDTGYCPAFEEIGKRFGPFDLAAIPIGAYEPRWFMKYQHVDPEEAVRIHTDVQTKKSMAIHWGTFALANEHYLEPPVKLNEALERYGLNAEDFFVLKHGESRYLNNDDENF

[4] = Plasma protein binding, human; assay type: in vitro ADME; details: equilibrium dialysis
NAPE-PLD = molecular target: T3, NAPE-PLD (Mus musculus, UniProt Q8BH82); assay: LC-MS-based endogenous NAPE-PLD activity assay; assay type: biochemical
T3 sequence (Q8BH82 1-396): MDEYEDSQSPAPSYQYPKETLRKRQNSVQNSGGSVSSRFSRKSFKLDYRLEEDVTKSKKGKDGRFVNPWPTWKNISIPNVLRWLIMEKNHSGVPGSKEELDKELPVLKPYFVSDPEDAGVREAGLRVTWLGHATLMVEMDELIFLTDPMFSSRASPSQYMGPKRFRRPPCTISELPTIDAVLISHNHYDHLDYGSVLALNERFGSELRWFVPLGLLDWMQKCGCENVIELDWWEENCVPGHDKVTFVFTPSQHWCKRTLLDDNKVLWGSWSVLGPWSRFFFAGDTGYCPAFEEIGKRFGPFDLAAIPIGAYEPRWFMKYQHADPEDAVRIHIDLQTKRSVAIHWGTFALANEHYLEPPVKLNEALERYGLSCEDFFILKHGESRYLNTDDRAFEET

[5] = WT littermates of NAPE-PLD KO animals, mixed 129SvJ-C57BL/6 background

O=C(NCC1CC1)c1cc(N2CC[C@H](O)C2)nc(N2CCC[C@@H](c3ccccc3)C2)n1 [LEI-401]
brain 2-AG levels (brain NAE levels; C57BL/6J mice, 30 mg kg^−1 i.p.): not significantly affected | brain anandamide level, dose response (brain NAE levels; C57BL/6J mice, 30 mg kg^−1 i.p., 2 h): significantly reduced anandamide | brain NAE levels in NAPE-PLD KO mice (brain NAE levels; NAPE-PLD KO mice, mixed 129SvJ-C57BL/6 background): did not reduce | brain AA levels at high dose (brain NAE levels; WT and NAPE-PLD KO mice (both genotypes), 60 mg kg^−1): decreased | brain NAPE and pNAPE species (brain NAE levels; WT and NAPE-PLD KO mice, compared to vehicle): No change | brain PEA and OEA levels in WT littermates (brain NAE levels; [5]): significantly reduced | brain anandamide levels in WT littermates (brain NAE levels; [5]): not decreased | brain anandamide level, time course (brain NAE levels; male C57BL/6J mice, 30 mg kg^−1 i.p. single dose, 1, 2, 4, 8 h, significant at 2 h, vehicle level by 4 h): significant and time-dependent reduction | clearance in human microsomes [1]: 10 μl min^−1 mg^−1 protein | inhibitory activity, PLA2G4E (PLA2G4E): No inhibitory activities | inhibition of ABHD6 (ABHD6): did not inhibit | c-Fos protein expression in PVN [2]: elevated c-Fos protein expression | competition of NAPE-PLD labeling by probe 10 [3]: labeling could be prevented | human protein binding [4]: > 99.8% | C17:0-NAE formation from C17:0-NAPE (NAPE-PLD; brain homogenates of NAPE-PLD KO mice): not from KO mice | C17:0-NAE formation from C17:0-NAPE (NAPE-PLD; brain homogenates of WT mice): reduced C17:0-NAE formation
